Test results published in EP4624457A1, “I[…] DERIVATIVES, I[…] NEURODEGENERATIVE DISEASES” (Centre National de la Recherche Scientifique, priority 2024, dated 2025).

Target: T1, neuronal α3β2 nAChR subtype (Rattus norvegicus, UniProt P04757+P12390)
T1 construct: expressed in transfected cells; host or cells: Xenopus laevis oocytes injected with mRNA
Test: Two-electrode voltage clamp electrophysiology on Xenopus laevis oocytes expressing the α3β2 nAChR
Assay type: cell-based
Details: portimine 100 nM - 1 mM for 45 seconds; stated for the three nAChR subtypes tested
Experimental: • Figure 1 represents the chemical structure of ingrilimine according to compound (Illa) formula. • Figure 2 represents the cytotoxic activity of ingrilimine. A2780 ovarian and HT29 colorectal carcinoma cells were grown in RPMI 1640 supplemented with 10% fetal calf serum (FCS) and 1% glutamine. U87-MG glioblastoma cells were grown in Dulbecco minimal essential medium containing 4.5 g/L glucose, 10% FCS and 1% glutamine at 37 °C in a humidified atmosphere containing 5% CO2. For IC50 determination, the cells were seeded in 96-well plates (3 × 10^3 cells/well) containing 90 µL of growth medium. After 24 h of culture, the cells were treated with ingrilimine at 10 different final concentrations. Cell viability was determined by luminescence after 72 h incubation. (a) Effect of ingrilimine on A2780 ovarian carcinoma cells. (b) Effect of ingrilimine on U87-MG glioblastoma cells. […] Sector Q normal cells that accumulated the JC-1 dye (fluorescence emission 590 nm). […] Changes in fluorescence emission were recorded by flow cytometry using the JC-1 mithocondrial membrane potential-dependent fluorescent dye. […] Phosphatidylcholine exposure in A2780 cell was quantified by flow cytometry using FITC-Annexin V. Dead or necrotic cells were detected using the vital dye propridium iodide. […]

T1 sequence (P12390 25-500): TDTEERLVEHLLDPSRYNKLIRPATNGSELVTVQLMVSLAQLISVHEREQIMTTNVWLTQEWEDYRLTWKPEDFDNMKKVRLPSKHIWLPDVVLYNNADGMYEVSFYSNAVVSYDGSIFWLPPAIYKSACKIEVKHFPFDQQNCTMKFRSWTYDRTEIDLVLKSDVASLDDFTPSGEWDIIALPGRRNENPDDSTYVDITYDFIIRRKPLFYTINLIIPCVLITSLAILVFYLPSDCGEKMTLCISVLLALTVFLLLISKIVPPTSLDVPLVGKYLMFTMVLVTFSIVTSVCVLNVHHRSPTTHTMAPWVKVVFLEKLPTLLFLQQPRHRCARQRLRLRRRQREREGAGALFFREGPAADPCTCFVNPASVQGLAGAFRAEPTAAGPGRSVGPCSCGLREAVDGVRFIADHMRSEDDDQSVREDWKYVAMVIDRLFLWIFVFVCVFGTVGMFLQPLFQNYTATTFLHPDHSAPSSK
T1 sequence (P04757 26-499): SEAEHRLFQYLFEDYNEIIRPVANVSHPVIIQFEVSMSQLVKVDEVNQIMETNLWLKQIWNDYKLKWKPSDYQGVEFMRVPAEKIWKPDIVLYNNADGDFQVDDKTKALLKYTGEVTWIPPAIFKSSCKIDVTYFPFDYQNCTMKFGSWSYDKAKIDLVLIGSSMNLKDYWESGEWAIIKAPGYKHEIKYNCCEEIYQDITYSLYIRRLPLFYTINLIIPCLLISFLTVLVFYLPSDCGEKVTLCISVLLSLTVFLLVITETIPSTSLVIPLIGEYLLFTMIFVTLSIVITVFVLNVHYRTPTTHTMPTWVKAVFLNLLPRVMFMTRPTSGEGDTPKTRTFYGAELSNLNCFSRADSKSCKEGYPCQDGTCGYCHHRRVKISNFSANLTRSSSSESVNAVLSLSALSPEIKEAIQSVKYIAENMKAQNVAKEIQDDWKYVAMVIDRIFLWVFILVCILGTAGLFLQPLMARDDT

For `C=CC1=C[C@@H]2[C@@H]3O[C@]4(CC[C@H](O4)[C@@H](C)C[C@@H](O)C3=O)C[C@H](O)C3=NCC[C@@]32CC1` [Portimine-A], the “inhibition of the acetylcholine-evoked current, concentration range” value was “micromolar range”.
